# In PMC13083723 (Patterns, 2026):
# Test system: Vero-E6 cells
# Test: cells
# Format: cell-based
# Conditions: Chlorocebus sabaeus, Vero C1008, 24 h, read-out: PL_Result
row,Structure (SMILES),activation at 10 µM [%]
1,CC(O)(C(=O)Nc1ccc(S(=O)(=O)c2ccccc2)cc1)C(F)(F)F (centres unmarked) [SPE_A62209527],-3.22
2,CC(=O)N(OCc1ccccc1)[C@@H]1c2cc(C#N)ccc2OC(C)(C)[C@H]1O [SPE_K42679050],0.738
3,O=C(NC(=O)c1c(F)cccc1Cl)NC1c2ccccc2-c2ccccc21 [SPE_K24527118],-7.81
4,O=C(O)CCn1c2c(c3ccccc31)C[C@H](NS(=O)(=O)c1ccc(F)cc1)CC2 [SPE_K08586861],-12
5,Cc1cc(OCc2nc(-c3ccccc3Cl)cs2)ccc1OCC(=O)O [SPE_K19409553],5.84
6,CC(=O)NCCc1c[nH]c2ccccc12 [SPE_K73700643],-6.27
7,C[C@@H](NC(=O)c1ncnc(N)c1Cl)c1ncc(C(=O)Nc2cc(C(F)(F)F)c(Cl)cn2)s1 [SPE_K43410529],-2.41
8,Nc1nc2[nH]nnc2c(=O)[nH]1 [SPE_K53114651],-1.39
9,CNC(=O)c1cc2c(cn1)[nH]c1ccccc12 [SPE_K61951118],-1.18
10,C=CC(=O)N1CCC(Oc2cc3c(Nc4ccc(Cl)c(Cl)c4F)ncnc3cc2OC)CC1 [SPE_K50010139],-3.41
11,O=C(Nc1cccnc1)N1CCC(Cc2cccc(Oc3ccc(C(F)(F)F)cn3)c2)CC1 [SPE_K68997413],1.53
12,OC[C@H]1O[C@@H](c2ccc(Cl)c(Cc3ccc(O[C@H]4CCOC4)cc3)c2)[C@H](O)[C@@H](O)[C@@H]1O [SPE_K53765467],-10
13,CCCCCCCCCCCCCCCc1cccc(OCC(=O)NCCO)c1 [SPE_K26358347],-8.8
14,COc1cc(Nc2nc3ccccc3nc2NS(=O)(=O)c2ccc(NC(=O)c3ccc(C)c(OC)c3)cc2)cc(OC)c1 [SPE_K75308783],-7.72
15,CCCNC(=O)Nc1ccc(Oc2ncnc3cc(OC)c(OC)cc23)cc1Cl [SPE_K90993449],-9.86
16,CC(=O)NC1[C@@H](O)OC(CO)[C@@H](O)[C@H]1O (some centres unmarked) [SPE_A92872453],-7.39
17,CCCN1CCCC[C@H]1C(=O)Nc1c(C)cccc1C [SPE_K50938786],0.0286
18,Cc1cc(OCC(=O)O)cc(C)c1Cc1ccc(O)c(C(C)C)c1 [SPE_K85406984],-18.6
19,CC(C)C(N)=O [SPE_K54057105],-7.86
20,CC1=CC[C@@H](C(C)(C)O)C[C@@H]1O [SPE_K58262380],-11.5

row,Structure (SMILES),activation at 10 µM [%]
1,CC(=O)O[C@H]1C[C@@]2(C)[C@@H](C[C@@H](O)C3[C@]2(C)CC[C@H]2[C@H](C)[C@H](O)CC[C@]32C)/C1=C(/CCC=C(C)C)C(=O)O (some centres unmarked) [SPE_A06935312],-11.6
2,Nc1ccc(S(=O)(=O)Nc2ccc(Cl)nn2)cc1 [SPE_K32021043],5.81
3,O=c1[nH]c(=O)n([C@H]2C[C@H](O)[C@@H](CO)O2)cc1/C=C/Br [SPE_A63675168],-6.33
4,CNC(=O)[C@H]1O[C@@H](n2cnc3c(NCc4cccc(I)c4)nc(Cl)nc32)[C@H](O)[C@@H]1O [SPE_K52396582],-2.9
5,Cc1ccsc1/C=C/C1=NCCCN1C [SPE_K71454870],-13.8
6,O=C(/C=C/c1cccnc1)NCCCCC1CCN(C(=O)c2ccccc2)CC1 [SPE_K58550667],2.51
7,Cc1cc2nc3c(=O)[nH]c(=O)nc-3n(C)c2cc1C=O [SPE_K00486786],-6.31
8,CCN(CC)CCOC(=O)C(c1ccccc1)C1CCCCC1 (centres unmarked) [SPE_A22267103],53.9
9,Cc1ccc2nc(N)nc(O)c2c1Sc1ccncc1 [SPE_K36636143],2.73
10,CN(C)CC(=O)Nc1ccc2[nH]c(=O)c3ccccc3c2c1 [SPE_K11853856],-0.459
11,CC(C)=CCC[C@](C)(O)[C@H]1CC[C@]2(C)[C@@H]1[C@H](O)C[C@@H]1[C@@]3(C)CC[C@H](O)C(C)(C)[C@@H]3CC[C@]12C [SPE_K60005752],-8.61
12,C[C@@H]1C[C@H]2[C@@H]3C[C@H](F)C4=CC(=O)C=C[C@]4(C)[C@@]3(Cl)[C@@H](O)C[C@]2(C)[C@H]1C(=O)COC(=O)C(C)(C)C [SPE_K38003476],-1.81
13,CN1CCC[C@@H]1Cc1c[nH]c2ccc(CCS(=O)(=O)c3ccccc3)cc12 [SPE_K30652337],1.82
14,CCCCCCCCCCC(=O)O[C@H]1CC[C@H]2[C@@H]3CCC4=CC(=O)CC[C@]4(C)[C@H]3CC[C@]12C [SPE_K70650177],-4.09
15,COc1cc2c(cc1OC)[C@@]13CCN4CC5=CCOC6CC(=O)N2C1[C@H]6[C@H]5C[C@H]43 (some centres unmarked) [SPE_A41995253],1.19
16,O=C(C1CCCCC1)N1CC(=O)N2CCc3ccccc3C2C1 (centres unmarked) [SPE_A21858158],-0.34
17,CN1C(CSCC(F)(F)F)Nc2cc(Cl)c(S(N)(=O)=O)cc2S1(=O)=O (centres unmarked) [SPE_A15739803],0.385
18,NCCCCN [SPE_K75282878],0.35
19,O=C1CCCN1CC#CCN1CCCC1 [SPE_K21936341],-3.09
20,C1CCC2(CC1)CCNCC2 [SPE_K49545903],-14.5

row,Structure (SMILES),activation at 10 µM [%]
1,CC(C)Oc1ccc(-c2cnc3c(-c4ccnc5ccccc45)cnn3c2)cc1 [SPE_K39381259],-4.31
2,Cc1[nH]c2ccccc2c1CCNCc1ccc(/C=C/C(=O)NO)cc1 [SPE_K02130563],-9.42
3,CCC/C=C1\OC(=O)C2=C1CCC=C2 [SPE_K48875051],-12.3
4,Nc1ncnc2c1ncn2[C@@H]1O[C@H](CO)C[C@H]1O [SPE_K65428967],-10.4
5,CC(=O)NCCNc1cc(Cl)nn2c(-c3cccc(S(=O)(=O)N(C)C)c3)c(C)nc12 [SPE_K26726854],0.695
6,COc1c(C)cnc(Cn2cnc3c(Cl)nc(N)nc32)c1C [SPE_K51967704],-7.08
7,COc1ccccc1N1CCN(CCCCN2C(=O)c3ccccc3C2=O)CC1 [SPE_K69195780],-5.05
8,CC(C)(S)C(=O)N[C@@H](CS)C(=O)O [SPE_K24697665],-4.72
9,COc1c(O)cc2c(c1O)[C@@H]1O[C@H](CO)[C@@H](O)[C@H](O)[C@H]1OC2=O [SPE_K04176066],1.1
10,Cc1ccc(C)c(C(O)CNC(C)C)c1 (centres unmarked) [SPE_A98083480],3.82
11,OCc1cc([C@@H](O)CNCCCCCCOCCOCc2c(Cl)cccc2Cl)ccc1O [SPE_M36487418],28.8
12,Cc1[nH]c2ccc(F)cc2c1-c1nc2c3cccnc3c3ncccc3c2[nH]1 [SPE_K68003372],-0.56
13,CC(=O)OCC(=O)[C@@]1(O)CCC2C3CCC4=CC(=O)CC[C@]4(C)C3[C@@H](O)C[C@@]21C (some centres unmarked) [SPE_A65767837],-13.7
14,CC(C)(C)c1ccc(-c2nc3ccccc3[nH]2)cc1 [SPE_K73073971],9.59
15,N[C@@H](CC(=O)N1CCn2c(nnc2C(F)(F)F)C1)Cc1n[nH]c2c(F)c(F)ccc12 [SPE_K04035716],-1.31
16,N#Cc1ccc(N2CCN(C(=O)COc3ccc4[nH]cc(CCN)c4c3)CC2)cc1 [SPE_K31092604],1.38
17,NC[C@H]1O[C@H](O[C@H]2C(O[C@@H]3O[C@H](CO)[C@@H](O)[C@H]3O)[C@@H](O)[C@H](N)C[C@@H]2N)[C@H](N)[C@@H](O)[C@@H]1O (some centres unmarked) [SPE_A03826781],-7.3
18,O=C1NC(O)CCN1[C@@H]1O[C@H](CO)[C@@H](O)[C@H]1O (some centres unmarked) [SPE_A86248581],-8.11
19,Nc1ncnc2c1ncn2C1CCCO1 (centres unmarked) [SPE_A56987319],0.343
